Experimental data as given in article PMC12668289 (RSC Chemical Biology, 2025).
Several values for one entry are separate records, joined by “and”; a condition that tells them apart may be missing. Equal entries are not always repeated.

Experiments:
[1] = test system: Pmluc-WT; assay: Steady-state kinetics of luciferase reactions (luminometer); assay type: biochemical, Pyrocoelia miyako; settings: for Substrate inhibition: concentration range tested 0-300; for appKm: pH 8.0, 25 °C; for Relative kcat: relative to 2a compound
Description: (§1) 1.5 Bioluminescence characterizations
(§2) Reactions of luciferases, including Photinus pyralis luciferase (Fluc), Phrixothrix hirtus luciferase (SLR), Pyrearinus termitilluminans […]
(§3) mM D-LH 2 analogues, 3 mM ATP, 6 mM MgCl2, and 10 µM luciferase in 0.2 ml of 100 mM HEPES-NaOH pH 8.0. The bioluminescence (BL) emission characteristics were recorded using a microplate reader in a BL mode (Thermo Scientific, Varioskan, LUX multimode). […]
BL of the
(§4) The reactions were initiated by mixing 25 µl of premixed solution of luciferases/D-LH 2 analogues with 125 µl of 3 mM ATP and 6 mM MgCl2 in 100 mM HEPES-NaOH (pH 8.0). The light intensity (relative light unit, RLU) during 0-300 sec was then collected to represent the overall luciferase activity which was further used for calculating kinetic parameters from the Michaelis-Menten equation. […]

[2] = biological target: T1, Fluc (Photinus pyralis, UniProt P08659); assay: BL emission spectra of luciferase-luciferin reactions; assay type: biochemical; settings: 100 mM HEPES pH 8.0, 25 °C
Description: as §1, §2, §3
(§5) sphere-based multichannel spectrometer with a charge-coupled device (CCD) detector. […]

[3] = test system: Pmluc-N230S (HeLa); assay: Sensitivity of live reporter cell detection (LOD of cell number); assay type: cell-based, human; settings: for Limit of detection (LOD), cells: Pmluc-N230S (HeLa); for Sensitivity higher than that of 2a: Pmluc-N230S expressing HeLa
[4] = biological target: Fluc-ApCPP complex (Photinus pyralis, UniProt P08659); assay: biochemical; assay type: binding; settings: ITC; for Kd / G (free energy of binding) / H (enthalpy of binding): 25 °C; for Kd: preformed Fluc-ApCPP complex, read-out: Dissociation constant (Kd) Fluc-ApCPP: Luciferin; for N site / G (free energy of binding) / H (enthalpy of binding): Fluc-ApCCP
[5] = Absorption and fluorescence spectra of luciferins; assay type: physicochemical; settings: 100 mM HEPES pH 8.0, 25 °C
Description: 2.6 Spectra of firefly luciferins
spectrophotometer (Agilent technologies, Cary 100 UV Vis, Cary Series UV-Vis Spectrophotometer).
were recorded by a microplate reader (Thermo Scientific, Varioskan, LUX multimode) in fluorescence mode. The reactions of D-LH 2 […]
Supplementary Table S5. […]
[e] ND denotes “not detectable”. […]

[6] = biological target: T2, Fluc-containing HEK293T crude lysate (Photinus pyralis, UniProt P08659, K549A/L550V/N119G/N50D/S548I); assay: BL assay of crude lysate of HEK293T expressing Fluc; assay type: cell-based
T2 construct: expressed in transfected cells; host or cells: HEK293T, transient transfection with pGL4.13 [luc2/SV40]

[7] = biological target: T1, Fluc; assay: Bioluminescence quantum yield measurement; assay type: biochemical
Description: as §1, §2
mM D-LH 2 analogues, 3 mM ATP, 6 mM MgCl2, and 10 µM luciferase in 0.2 ml of 100 mM HEPES-NaOH pH 8.0. […]
A reference light source was used for calibrating a sphere spectrometer equipped with a cooled CCD detector.
The absolute responsivity of each luciferase-luciferin reaction was calculated based on a linear standardization between total photon flux measured using the sphere spectrometer equipped with a cooled CCD detector and relative count values measured by a luminometer. Total photons emitted from the bioluminescence reaction of each luciferase-luciferin pair were measured using a calibrated luminometer. A reaction containing 0.5-5 nM of each luciferin, 3 mM ATP, 3 mM MgCl2 in 100 mM Tris-HCl (total volume of 200 µl) was placed into the luminometer and background signals were recorded. The reaction was then initiated by adding 20 µl of 0.5 […]
mM purified luciferases into the reaction tube and the bioluminescence signals were monitored until it decayed to the background level.

[8] = test system: Pmluc-WT; assay: BL emission spectra of luciferase-luciferin reactions; assay type: biochemical, Pyrocoelia miyako; settings: 100 mM HEPES pH 8.0, 25 °C
Description: as §1, §2, §3, §5

[9] = test system: Pmluc-N230S (HepG2); assay: Sensitivity of live reporter cell detection (LOD of cell number); assay type: cell-based, human
[10] = test system: Eluc; assay: Steady-state kinetics of luciferase reactions (luminometer); assay type: biochemical, Pyrearinus termitilluminans; settings: for Substrate inhibition: concentration range tested 0-300; for appKm: pH 8.0, 25 °C
Description: as §1, §2, §3
BL of the
as §4

[11] = test system: SLR (HepG2); assay: Sensitivity of live reporter cell detection (LOD of cell number); assay type: cell-based, human
[12] = test system: Pmluc-N230S; assay: Steady-state kinetics of luciferase reactions (luminometer); assay type: biochemical, Pyrocoelia miyako; design: Substrate inhibition: unit not given here; settings: for appKm: pH 8.0, 25 °C; for Relative kcat: relative to 2a compound
Description: as §1, §2, §3
BL of the
as §4

[13] = test system: Fluc-expressing HeLa cells; assay: Real-time BL monitoring of live cells; settings: 100 µM
Description: plasmids and Lipofectamine 3000 were then combined and incubated for 30 minutes to allow formation of DNA and lipid complexes.
The DNA-lipid complexes were added directly to each well of the empty plate. 1.5 × 10⁵ cells (HepG2 and HeLa cells) were then suspended
in 150 µL of DMEM supplemented with 10% FBS were added directly into the transfection mixture in each well. The plate was gently
agitated to ensure even distribution and incubated at 37°C in a humidified 5% CO₂ incubator. The reporter cells obtained at this stage
were ready for further investigation of their bioluminescence with D-LH2 analogues.
2c), 10% FBS and 25 mM HEPES-NaOH (pH 7.0) was added and the BL signals were monitored with F0 (no filter) and F2 (red filter, >620
nm long-pass filter) by a luminometer (ATTO, Kronos HT, WSL-1563) and while maintaining the cells with 5% CO2 at 37 °C.

[14] = test system: SLR; assay: Steady-state kinetics of luciferase reactions (luminometer); assay type: biochemical, Phrixothrix hirtus; settings: for Substrate inhibition: concentration range tested 0-300; for appKm: pH 8.0, 25 °C; for Relative kcat: relative to 2a compound
Description: as §1, §2, §3
BL of the
as §4

[15] = biological target: T1, Fluc; assay: as above; assay type: biochemical; settings: for Substrate inhibition: concentration range tested 0-300; for appKm: pH 8.0, 25 °C
Description: as §1, §2, §3
BL of the
as §4

[16] = test system: Pmluc-N230S; assay: Stability of BL signals (half-time of light emission); assay type: biochemical, Pyrocoelia miyako; settings: compared to 2a
Description: as §1, §2
as §3, with “multimode). A digital single-lens reflex (DSLR) camera (Nikon D80, CCD sensor) with a 30-second exposure period was used to capture the BL images.” for “multimode).”

[17] = test system: SLR (HeLa); assay: Sensitivity of live reporter cell detection (LOD of cell number); assay type: cell-based, human
[18] = biological target: T1, Fluc; assay: Stopped-flow luminometry, single turnover light formation and decay; assay type: biochemical; settings: for Observed rate constant (kobs) Light decay Faster phase / Observed rate constant (kobs) Light decay Slower phase / Observed rate constant (kobs) Light formation: Fluc single turnover, 25 °C
Description: 1.5 Bioluminescence characterizations […]
One syringe was filled with a solution of 50 µM Fluc, 3 mM ATP, and 6 mM
in both syringes were mixed by a stopped-flow device and measured the light emission at 25 °C in triplicate. […]
2.8 Investigation of bioluminescence kinetics using stopped-flow luminometry
reactions were investigated using a stopped-flow spectrophotometer (employing a light-off mode for detecting the luminescence). One

[19] = biological target: T1, Fluc; assay: Stability of BL signals (half-time of light emission); assay type: biochemical; settings: compared to 2a
Description: as §1, §2
as §3, with “multimode). A digital single-lens reflex (DSLR) camera (Nikon D80, CCD sensor) with a 30-second exposure period was used to capture the BL images.” for “multimode).”

T2 sequence (P08659 whole entry N50D/N119G/S548I/K549A/L550V): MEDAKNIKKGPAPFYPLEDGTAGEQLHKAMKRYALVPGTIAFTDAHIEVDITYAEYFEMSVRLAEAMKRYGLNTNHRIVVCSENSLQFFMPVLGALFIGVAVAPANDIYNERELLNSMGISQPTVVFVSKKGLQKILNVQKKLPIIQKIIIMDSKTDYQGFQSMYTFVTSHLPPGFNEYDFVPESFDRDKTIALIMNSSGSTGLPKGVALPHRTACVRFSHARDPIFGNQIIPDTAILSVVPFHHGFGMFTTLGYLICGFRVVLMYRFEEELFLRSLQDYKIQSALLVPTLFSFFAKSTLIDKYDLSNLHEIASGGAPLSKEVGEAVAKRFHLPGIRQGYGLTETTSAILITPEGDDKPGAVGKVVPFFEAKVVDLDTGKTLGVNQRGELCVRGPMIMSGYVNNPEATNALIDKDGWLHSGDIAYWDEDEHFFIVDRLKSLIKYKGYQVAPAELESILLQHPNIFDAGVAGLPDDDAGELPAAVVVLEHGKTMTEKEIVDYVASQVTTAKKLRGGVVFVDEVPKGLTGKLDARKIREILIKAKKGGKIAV
Sequence of Fluc-ApCPP complex (P08659 whole entry, one chain of several): as the sequence (P08659 whole entry N50D/N119G/S548I/K549A/L550V) above, with D50N, G119N, I548S, A549K, V550L counted along it
T1 sequence (P08659 whole entry): as the sequence (P08659 whole entry N50D/N119G/S548I/K549A/L550V) above, with D50N, G119N, I548S, A549K, V550L counted along it

Q: What does the source list for `Cc1cc2nc(C3=N[C@@H](C(=O)O)CS3)sc2cc1O` [Compound 2b, 5’-methyl-D-luciferin]?
A: Substrate inhibition [1]: > 2 µM; appKm [1]: 0.4 µM; Relative kcat [1]: 110.0; Bioluminescence wavelength (BLλ) [2]: 605 nm; Limit of detection (LOD), cells ([3]; F0 (no filter)): 630 cells; Limit of detection (LOD), cells ([3]; F2 (red filter)): 812 cells; Sensitivity higher than that of 2a ([3]; F0 filter): about 2.3 fold; Sensitivity higher than that of 2a ([3]; F2 filter): ~1.4 fold; Kd [4]: 4 ± 0.02 µM; N site [4]: 0.33; G (free energy of binding) [4]: -7.60 kcal/mol; H (enthalpy of binding) [4]: -4.60 kcal/mol; Absorption (λmax) [5]: 323 nm; Fluorescence (λem) [5]: 523 nm and 523–560 nm; Limit of detection (LOD) of expressed Fluc in crude cell lysates ([6]; HEK293T crude lysate): 4.6 ng; Sensitivity to detect Fluc better than natural D-LH2 (2a) ([6]; HEK293T crude lysate, from LOD): about 11.2 fold; Sensitivity greater than 2a ([6]; HEK293T lysate, varied substrate concentration and lysate amount): about 2 fold; Light intensity greater than 2a ([6]; fixed amount of HEK293T crude lysate, varied concentration): about 2.5 fold; Quantum yield [7]: 0.52 and 0.52 ± 0.01; Bioluminescence wavelength (BLλ) [8]: 608 nm; Limit of detection (LOD), cells ([9]; F0 (no filter)): 752 cells; Limit of detection (LOD), cells ([9]; F2 (red filter)): 247 cells; Substrate inhibition [10]: > 8 µM; appKm [10]: 0.7 µM; Limit of detection (LOD), cells ([11]; F0 (no filter)): 643 cells; Limit of detection (LOD), cells ([11]; F2 (red filter)): 783 cells; Relative kcat (BL intensity), fold of 2a ([12]; Pmluc N230S, compared to 2a): 5.2 fold; Substrate inhibition ([12]; Pmluc-N230S, concentration range tested 0-300): > 4.0; appKm ([12]; Pmluc-N230S): 1.8 µM; Relative kcat ([12]; Pmluc-N230S): 518.5; Time BL signals increase or are prolonged before decreasing [13]: up to 13 h; Substrate inhibition [14]: > 14 µM; appKm [14]: 0.7 µM; Relative kcat [14]: 157.3; Substrate inhibition [15]: > 10.0 µM; appKm [15]: 3.1 µM; BL half-life (t1/2) longer than that of 2a [16]: about 1.7 fold; Limit of detection (LOD), cells ([17]; F0 (no filter)): 973 cells; Limit of detection (LOD), cells ([17]; F2 (red filter)): 826 cells; Observed rate constant (kobs) Light decay Faster phase [18]: 1.55 s⁻¹ and 1.55 ± 0.15 s⁻¹; Observed rate constant (kobs) Light decay Slower phase [18]: 0.27 s⁻¹ and 0.27 ± 0.00 s⁻¹; Observed rate constant (kobs) Light formation [18]: 9.63 s⁻¹ and 9.63 ± 0.04 s⁻¹

Q: Which Substrate inhibition [1] does the source give for `Cc1cc2nc(C3=N[C@@H](C(=O)O)CS3)sc2c(C)c1O` [Compound 2c, 5’,7’-di-methyl-D-luciferin] here?
A: The Substrate inhibition was > 8.3 µM.

Q: What about the appKm [1] of the same compound?
A: Its appKm is 1.8 µM.

Q: And the Relative kcat [1]?
A: Its Relative kcat is 7.7.

Q: What about the “Bioluminescence wavelength (BLλ)” value [2] of the same compound?
A: The value was 628 nm.

Q: And the Kd [4]?
A: The Kd was 25.3 ± 1.1 µM.

Q: What about the N site [4] of the same compound?
A: Its N site is 3.34.

Q: What about the “G (free energy of binding)” value [4] of the same compound?
A: The value was -6.01 kcal/mol.

Q: And the “H (enthalpy of binding)” value [4]?
A: The value was -4.85 kcal/mol.

Q: What about the “Absorption (λmax)” value [5] of the same compound?
A: The value was 334 nm.

Q: What about the “Fluorescence (λem)” value [5] of the same compound?
A: The value was 560 nm and 523–560 nm.

Q: What about the Quantum yield [7] of the same compound?
A: The Quantum yield was 0.20 and 0.200 ± 0.007.

Q: And the “Bioluminescence wavelength (BLλ)” value [8]?
A: The value was 631 nm.

Q: And the Substrate inhibition [10]?
A: Its Substrate inhibition is > 12.5 µM.

Q: And the appKm [10]?
A: Its appKm is 3.5 µM.

Q: What about the Relative kcat ([10]; relative to 2a compound) of the same compound?
A: The Relative kcat was 0.3.

Q: What about the “Limit of detection (LOD), cells” value ([11]; F0 (no filter)) of the same compound?
A: Its value is 500 cells.

Q: And the “Limit of detection (LOD), cells” value ([11]; F2 (red filter))?
A: Its value is 613 cells.

Q: And the “BL half-life (t1/2) longer than that of 2a” value [19]?
A: The value was “about 1.7 fold”.

Q: And the appKm ([12]; Pmluc-N230S)?
A: Its appKm is 2.6 µM.

Q: What about the Relative kcat ([12]; Pmluc-N230S) of the same compound?
A: The Relative kcat was 48.1.

Q: What about the “Time BL signals increase or are prolonged before decreasing” value [13] of the same compound?
A: Its value is “up to 13 h”.

Q: And the Substrate inhibition [14]?
A: Its Substrate inhibition is > 2.1 µM.

Q: What about the appKm [14] of the same compound?
A: The appKm was 0.5 µM.

Q: What about the Relative kcat [14] of the same compound?
A: The Relative kcat was 134.8.

Q: What about the Substrate inhibition [15] of the same compound?
A: Its Substrate inhibition is > 12.5 µM.

Q: What about the appKm [15] of the same compound?
A: Its appKm is 2.5 µM.

Q: What about the Relative kcat ([15]; relative to 2a compound) of the same compound?
A: Its Relative kcat is 67.8.

Q: And the “BL half-life (t1/2) longer than that of 2a” value [16]?
A: The value was ~5.6 fold.

Q: What about the “Limit of detection (LOD), cells” value ([17]; F0 (no filter)) of the same compound?
A: Its value is 1437 cells.

Q: And the “Limit of detection (LOD), cells” value ([17]; F2 (red filter))?
A: The value was 707 cells.

Q: And the “kobs of light decay (faster and slower phases) slower than those of 2a and 2b” value ([18]; Fluc)?
A: The value was 5–6 fold.

Q: And the “Observed rate constant (kobs) Light decay Faster phase” value [18]?
A: The value was 0.27 s⁻¹ and 0.27 ± 0.00 s⁻¹.

Q: What about the “Observed rate constant (kobs) Light decay Slower phase” value [18] of the same compound?
A: Its value is 0.05 s⁻¹ and 0.05 ± 0.00 s⁻¹.

Q: And the “Observed rate constant (kobs) Light formation” value [18]?
A: The value was 7.28 s⁻¹ and 7.28 ± 0.02 s⁻¹.
